These results are taken from PMC11003491 (Journal of Enzyme Inhibition and Medicinal Chemistry, 2023).

One data set has as its target HER-2 (Homo sapiens, UniProt P04626). The experiment in a line: HER-2 Kinase Assay Kit. It is filed as biochemical.
Another data set concerns the target EGFR-WT (Homo sapiens, UniProt P00533). Briefly: biochemical. Conditions: EGFR WT IC50, five concentrations.
For a further data set, the system named is MCF-7. Conditions: read-out: cytotoxicity against MCF-7 IC50; cited from earlier work.
For data set [1], the system named is A549 small lung cancer cell line. Briefly: MTT cell viability assay, A549. It is filed as cell-based. To be noted: Homo sapiens, A549, 48 h, read-out: A549 IC50, MTT, 48 h, mean of six values. For orientation: Tetrazolium dyes change colour on reduction, which living cells bring about.
For the next data set, the system named is MCF7 breast cells. The experiment in a line: Apoptosis by Annexin-V-FITC/PI flow cytometry. Conditions: MCF7, compound at IC50, 24 h. It is filed as cell-based, human. (In general: In flow cytometry, cells or beads pass a laser one at a time.)
For another data set, the system named is breast MCF7 cells. The experiment in a line: Cell cycle analysis by flow cytometry. It is filed as cell-based, human. Conditions: MCF7, compound at IC50 concentration, 24 h.

Sequence of EGFR-WT (P00533 25-1210): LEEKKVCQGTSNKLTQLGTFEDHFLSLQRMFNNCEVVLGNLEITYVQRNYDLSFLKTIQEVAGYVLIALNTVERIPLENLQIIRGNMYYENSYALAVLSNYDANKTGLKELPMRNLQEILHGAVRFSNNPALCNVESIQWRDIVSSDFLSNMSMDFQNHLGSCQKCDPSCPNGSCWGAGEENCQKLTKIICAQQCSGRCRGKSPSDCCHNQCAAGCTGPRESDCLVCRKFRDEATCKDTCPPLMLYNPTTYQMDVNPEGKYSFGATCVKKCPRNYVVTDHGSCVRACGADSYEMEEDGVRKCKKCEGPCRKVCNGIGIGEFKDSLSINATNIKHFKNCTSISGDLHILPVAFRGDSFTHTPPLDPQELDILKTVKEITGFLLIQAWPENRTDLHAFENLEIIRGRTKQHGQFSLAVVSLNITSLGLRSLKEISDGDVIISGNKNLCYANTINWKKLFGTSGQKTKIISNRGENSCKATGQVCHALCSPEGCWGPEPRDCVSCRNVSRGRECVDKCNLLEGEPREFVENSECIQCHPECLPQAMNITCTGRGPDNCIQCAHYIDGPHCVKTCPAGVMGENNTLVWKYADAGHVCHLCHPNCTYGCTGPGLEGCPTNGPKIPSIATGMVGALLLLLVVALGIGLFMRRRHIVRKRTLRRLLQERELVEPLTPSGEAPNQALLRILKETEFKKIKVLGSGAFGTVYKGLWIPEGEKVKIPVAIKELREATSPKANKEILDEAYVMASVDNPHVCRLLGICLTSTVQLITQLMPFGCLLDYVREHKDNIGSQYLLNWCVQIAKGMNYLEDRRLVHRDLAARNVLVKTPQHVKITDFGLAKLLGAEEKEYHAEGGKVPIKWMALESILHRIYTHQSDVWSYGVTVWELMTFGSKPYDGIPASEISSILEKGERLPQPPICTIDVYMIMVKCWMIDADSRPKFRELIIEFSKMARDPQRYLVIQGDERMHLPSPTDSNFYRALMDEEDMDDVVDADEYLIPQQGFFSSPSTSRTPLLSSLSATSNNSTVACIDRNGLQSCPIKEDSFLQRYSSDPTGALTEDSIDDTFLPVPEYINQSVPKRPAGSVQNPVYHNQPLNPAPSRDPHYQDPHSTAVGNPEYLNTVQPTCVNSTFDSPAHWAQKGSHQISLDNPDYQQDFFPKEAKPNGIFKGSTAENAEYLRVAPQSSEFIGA
Sequence of HER-2 (P04626 23-1255): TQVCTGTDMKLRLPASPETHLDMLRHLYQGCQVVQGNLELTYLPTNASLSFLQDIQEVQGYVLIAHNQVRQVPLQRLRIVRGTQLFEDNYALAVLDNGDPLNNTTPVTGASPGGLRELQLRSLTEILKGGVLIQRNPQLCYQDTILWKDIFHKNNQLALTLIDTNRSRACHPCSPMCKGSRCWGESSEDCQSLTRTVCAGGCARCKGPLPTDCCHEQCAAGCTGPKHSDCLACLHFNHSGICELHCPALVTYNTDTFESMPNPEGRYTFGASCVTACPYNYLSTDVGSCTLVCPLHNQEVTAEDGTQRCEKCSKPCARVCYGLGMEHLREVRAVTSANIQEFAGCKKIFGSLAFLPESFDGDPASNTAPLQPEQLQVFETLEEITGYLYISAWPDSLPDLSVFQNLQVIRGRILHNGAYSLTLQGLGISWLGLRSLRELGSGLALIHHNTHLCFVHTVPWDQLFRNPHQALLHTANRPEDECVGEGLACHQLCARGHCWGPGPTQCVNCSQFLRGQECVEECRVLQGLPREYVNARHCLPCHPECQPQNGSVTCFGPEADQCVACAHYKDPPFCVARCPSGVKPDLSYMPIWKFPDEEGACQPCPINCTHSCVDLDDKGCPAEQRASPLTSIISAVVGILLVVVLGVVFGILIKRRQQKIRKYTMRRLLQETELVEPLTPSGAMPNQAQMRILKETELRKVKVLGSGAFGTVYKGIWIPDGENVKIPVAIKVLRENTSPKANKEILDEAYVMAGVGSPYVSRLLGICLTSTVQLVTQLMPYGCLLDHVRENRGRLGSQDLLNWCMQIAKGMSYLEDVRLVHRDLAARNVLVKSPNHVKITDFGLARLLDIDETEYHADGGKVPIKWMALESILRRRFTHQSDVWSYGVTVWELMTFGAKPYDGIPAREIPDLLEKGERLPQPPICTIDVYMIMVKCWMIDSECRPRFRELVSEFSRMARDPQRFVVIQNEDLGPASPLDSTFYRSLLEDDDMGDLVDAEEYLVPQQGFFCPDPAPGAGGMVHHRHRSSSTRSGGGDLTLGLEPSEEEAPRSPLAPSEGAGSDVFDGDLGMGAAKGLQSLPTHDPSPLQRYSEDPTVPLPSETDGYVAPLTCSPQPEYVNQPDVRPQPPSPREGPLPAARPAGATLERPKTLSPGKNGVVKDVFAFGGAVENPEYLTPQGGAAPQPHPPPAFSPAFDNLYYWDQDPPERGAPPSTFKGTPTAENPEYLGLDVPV

As a reminder, the IC50 is the concentration that inhibits the measured activity by half. Take `COc1ccc(-c2nn(-c3ccc(S(C)(=O)=O)cc3)cc2/C=N/N=c2\[nH]c(-c3ccc(Br)cc3)cs2)cc1` [Compound 18c, (E)-4–(4-bromophenyl)-2-((E)-((3–(4-methoxyphenyl)-1–(4-(methylsulfonyl)phenyl)-1H-pyrazol-4-yl)methylene)hydrazono)-2,3-dihydrothiazole]: the IC50 on HER-2 amounted to 144 nM; against EGFR-WT it was 226 nM.

As for `C#Cc1cccc(Nc2ncnc3cc(OCCOC)c(OCCOC)cc23)c1` [erlotinib], the IC50 with MCF-7 is 20 nM.

For `CC(C)Cc1ccc(-c2nn(-c3ccc(S(C)(=O)=O)cc3)cc2/C=N/N=c2\[nH]c(-c3ccc([N+](=O)[O-])cc3)cs2)cc1` [Compound 18f, (E)-2-((E)-((3–(4-isobutylphenyl)-1–(4-(methylsulfonyl)phenyl)-1H-pyrazol-4-yl)methylene)hydrazono)-4–(4-nitrophenyl)-2,3-dihydrothiazole], the IC50 at HER-2 is 201 nM; against EGFR-WT it was 190 nM; in data set [1], 1640 to 14300 nM.

Consider `COc1ccc(-c2nn(-c3ccc(S(C)(=O)=O)cc3)cc2C=N/N=c2\[nH]c(-c3ccc([N+](=O)[O-])cc3)cs2)cc1` [Compound 18d, (E and Z)-2-((E)-((3–(4-methoxyphenyl)-1–(4-(methylsulfonyl)phenyl)-1H-pyrazol-4-yl)methylene)hydrazono)-4–(4-nitrophenyl)-2,3-dihydrothiazole], for which, in the data set with MCF7 breast cells, the “Apoptosis Early” value stood at 12.58%, the “Apoptosis Late” value was found to be 27.45% and the Necrosis was 6.52%. The IC50 at HER-2 turned out to be 195 nM. In addition, the IC50 at EGFR-WT came to 388 nM. Further, in the data set on breast MCF7 cells, the “%G0–G1” value is on record as 62.43% and the “%G2-M” value came to 4.39%.
